According to US6608086B2, “Dihydropyridines and new uses thereof” (Synaptic Pharmaceutical Corporation, priority 1993, dated 2003):
Counter-ions that a name gives are not always drawn. Like-named read-outs stand apart in the source and are kept apart here.

Target: T1, L-type calcium channel (Rattus norvegicus, UniProt P22002)
T1 construct: membrane fragments of rat cardiac muscle; from tissue; host or cells: rat cardiac muscle membranes
Test: Competition binding of [3H]nitrendipine to membrane fragments of rat cardiac muscle

[1] = [3H]nitrendipine, rat cardiac muscle membrane fragments, L-type calcium channel
[2] = [3H]nitrendipine, rat cardiac muscle membranes, SEM and n in lines below, read-out: pKi Ca (converted)
[3] = [3H]nitrendipine, rat cardiac muscle membranes, SEM and n in lines below

T1 sequence (P22002 whole entry, other chains not shown, the tested form may be a part): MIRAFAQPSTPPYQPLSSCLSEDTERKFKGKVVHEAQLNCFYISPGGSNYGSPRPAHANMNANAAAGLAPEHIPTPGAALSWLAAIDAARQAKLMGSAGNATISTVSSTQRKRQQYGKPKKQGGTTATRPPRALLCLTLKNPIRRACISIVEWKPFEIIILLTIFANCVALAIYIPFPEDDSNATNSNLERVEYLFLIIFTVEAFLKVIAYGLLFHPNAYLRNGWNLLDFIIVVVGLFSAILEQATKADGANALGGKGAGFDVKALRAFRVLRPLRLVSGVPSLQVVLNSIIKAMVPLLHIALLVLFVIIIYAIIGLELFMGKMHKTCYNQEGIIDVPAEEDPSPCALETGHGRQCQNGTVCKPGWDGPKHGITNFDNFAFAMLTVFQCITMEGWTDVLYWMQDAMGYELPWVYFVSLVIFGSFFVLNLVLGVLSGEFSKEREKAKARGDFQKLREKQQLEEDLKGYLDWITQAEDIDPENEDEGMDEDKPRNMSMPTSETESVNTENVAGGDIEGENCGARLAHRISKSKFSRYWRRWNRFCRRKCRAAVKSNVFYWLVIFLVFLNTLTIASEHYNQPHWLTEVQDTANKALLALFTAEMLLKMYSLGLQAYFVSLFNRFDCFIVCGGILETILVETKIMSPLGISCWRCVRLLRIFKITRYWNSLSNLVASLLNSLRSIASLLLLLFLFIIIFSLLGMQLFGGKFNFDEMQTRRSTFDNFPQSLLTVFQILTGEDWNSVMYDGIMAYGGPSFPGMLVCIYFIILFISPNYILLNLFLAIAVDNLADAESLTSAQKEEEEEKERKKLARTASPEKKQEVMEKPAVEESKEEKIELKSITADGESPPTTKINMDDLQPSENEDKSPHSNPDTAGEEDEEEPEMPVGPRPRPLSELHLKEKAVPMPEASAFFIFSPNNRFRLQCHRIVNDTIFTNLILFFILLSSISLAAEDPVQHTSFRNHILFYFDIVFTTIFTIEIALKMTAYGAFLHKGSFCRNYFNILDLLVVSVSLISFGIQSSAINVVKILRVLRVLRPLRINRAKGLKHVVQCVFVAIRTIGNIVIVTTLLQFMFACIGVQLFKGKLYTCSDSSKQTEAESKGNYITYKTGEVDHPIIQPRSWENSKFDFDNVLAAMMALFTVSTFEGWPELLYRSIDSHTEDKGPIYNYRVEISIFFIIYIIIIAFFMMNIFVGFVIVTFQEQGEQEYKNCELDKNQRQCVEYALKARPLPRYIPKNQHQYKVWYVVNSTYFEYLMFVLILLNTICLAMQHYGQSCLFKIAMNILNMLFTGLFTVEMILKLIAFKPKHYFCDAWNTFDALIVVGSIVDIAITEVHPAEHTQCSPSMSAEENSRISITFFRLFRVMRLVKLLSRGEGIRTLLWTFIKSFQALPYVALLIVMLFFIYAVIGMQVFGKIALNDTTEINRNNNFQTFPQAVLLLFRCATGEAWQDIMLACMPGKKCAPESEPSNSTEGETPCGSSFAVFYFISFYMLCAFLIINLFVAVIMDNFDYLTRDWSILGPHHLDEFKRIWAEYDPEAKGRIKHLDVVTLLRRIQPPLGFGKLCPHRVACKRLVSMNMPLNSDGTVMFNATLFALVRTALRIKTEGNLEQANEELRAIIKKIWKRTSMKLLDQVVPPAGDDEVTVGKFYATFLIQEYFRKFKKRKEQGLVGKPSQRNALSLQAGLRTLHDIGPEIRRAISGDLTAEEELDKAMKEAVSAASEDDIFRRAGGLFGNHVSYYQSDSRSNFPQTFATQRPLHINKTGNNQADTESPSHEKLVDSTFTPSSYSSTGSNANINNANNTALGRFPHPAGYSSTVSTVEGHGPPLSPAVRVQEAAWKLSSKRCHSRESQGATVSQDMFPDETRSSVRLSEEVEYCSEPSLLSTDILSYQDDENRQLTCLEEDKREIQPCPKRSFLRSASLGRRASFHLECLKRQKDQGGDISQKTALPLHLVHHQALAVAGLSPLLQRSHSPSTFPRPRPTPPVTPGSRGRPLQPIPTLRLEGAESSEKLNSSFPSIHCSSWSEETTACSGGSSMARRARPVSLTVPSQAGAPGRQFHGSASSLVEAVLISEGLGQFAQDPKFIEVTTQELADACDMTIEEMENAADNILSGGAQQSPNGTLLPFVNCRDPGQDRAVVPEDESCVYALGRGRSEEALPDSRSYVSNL
T1 sequence (P54290 25-944 partner limits assumed, other chains not shown): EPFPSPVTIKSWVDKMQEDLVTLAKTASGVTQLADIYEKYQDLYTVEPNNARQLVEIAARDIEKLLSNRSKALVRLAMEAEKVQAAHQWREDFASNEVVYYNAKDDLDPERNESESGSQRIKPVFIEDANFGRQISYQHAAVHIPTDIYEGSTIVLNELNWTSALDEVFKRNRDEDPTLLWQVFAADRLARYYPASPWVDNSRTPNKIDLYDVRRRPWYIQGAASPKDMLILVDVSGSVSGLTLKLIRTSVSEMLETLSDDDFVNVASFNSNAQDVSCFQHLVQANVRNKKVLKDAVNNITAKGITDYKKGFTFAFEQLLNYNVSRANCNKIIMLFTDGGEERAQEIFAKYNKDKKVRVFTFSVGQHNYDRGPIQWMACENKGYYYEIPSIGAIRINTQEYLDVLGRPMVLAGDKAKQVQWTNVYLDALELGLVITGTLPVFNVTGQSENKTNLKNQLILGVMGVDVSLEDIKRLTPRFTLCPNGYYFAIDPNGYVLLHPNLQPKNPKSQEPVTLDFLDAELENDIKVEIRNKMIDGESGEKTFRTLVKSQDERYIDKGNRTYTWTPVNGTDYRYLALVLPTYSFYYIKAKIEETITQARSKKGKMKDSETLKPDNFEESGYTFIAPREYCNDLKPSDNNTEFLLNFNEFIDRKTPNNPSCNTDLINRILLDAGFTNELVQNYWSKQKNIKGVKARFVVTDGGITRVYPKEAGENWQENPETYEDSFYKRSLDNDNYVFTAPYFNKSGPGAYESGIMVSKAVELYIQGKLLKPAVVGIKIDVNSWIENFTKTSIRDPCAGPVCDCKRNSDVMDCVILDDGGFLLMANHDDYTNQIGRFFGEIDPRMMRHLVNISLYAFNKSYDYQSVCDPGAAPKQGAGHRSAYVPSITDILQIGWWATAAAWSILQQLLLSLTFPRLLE
T1 sequence (P54290 945-1091 partner limits assumed, other chains not shown): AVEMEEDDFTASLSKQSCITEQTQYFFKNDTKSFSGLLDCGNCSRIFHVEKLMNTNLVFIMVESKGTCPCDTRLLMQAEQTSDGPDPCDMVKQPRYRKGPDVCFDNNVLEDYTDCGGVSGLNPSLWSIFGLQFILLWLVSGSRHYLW

| Molecule | Ki [2] [µM] | pKi Ca [3] | further results |
| --- | --- | --- | --- |
| CCC1=C(C(=O)NC)C(c2ccc([N+](=O)[O-])cc2)C(C(=O)NCCCN2CCC(C#N)(c3ccccc3)CC2)=C(CC)N1 (stereo not shown) [Example 126, 3-{N-[3-(4-Cyano-4-phenylpiperidin-1-yl)propyl]}carboxamido-1,4-dihydro-2,6-diethyl-5-(1-methyl)carboxamido-4-(4-nitrophenyl)pyridine] | – | – | pKi Ca [1]: 6.34 |
| CCC1=C(C(=O)NC2CCN(Cc3ccccc3)CC2)C(c2ccc([N+](=O)[O-])cc2)C(C(=O)OC)=C(C)N1 (stereo not shown) [Example 75, 2-Ethyl-1,4-dihydro-5-methoxycarbonyl-6-methyl-4-(4-nitro)phenyl-3-(N-(N-phenylmethyl)piperidin-4-yl)carboxamidopyridine hydrochloride] | 3.55 | – | – |
| CC(=O)C1=C(C)NC(C)=C(C(=O)NCCCN2CCC(c3ccccc3)(c3ccccc3)CC2)C1c1ccc([N+](=O)[O-])cc1 (stereo not shown) [Example 47, 5-Acetyl-1,4-dihydro-2,6-dimethyl-4-(4-nitrophenyl)-3-{N-[3-(4,4-diphenylpiperidin-1-yl)propyl]}carboxamidopyridine] | 17.8 | – | – |
| COC(=O)C1=C(C)NC(C)=C(C(=O)NCCCN2CCC(c3ccccc3)CC2)C1c1ccc([N+](=O)[O-])cc1 (single isomer, unassigned; (-)) [(−)-45, 1,4-Dihydro-3-methoxycarbonyl-2,6-dimethyl-4-(4-nitrophenyl)-5-{N-[3-(4-phenylpiperidin-1-yl)propyl]}carboxamidopyridine hydrochloride hemihydrate] | 4.37 | – | – |
| CCC1=C(C(=O)NCCCN2CCc3cc(OC)c(OC)cc3C2)C(c2ccc([N+](=O)[O-])cc2)C(C(N)=O)=C(C)N1.Cl.O (stereo not shown) [Example 76, 5-Carboxamido-2-ethyl-1,4-dihydro-3-(N-(3-(1,2,3,4-tetrahydro-6,7-dimethoxyisoquinolin-2-yl)propyl)) carboxamido-6-methyl-4-(4-nitro)phenylpyridine hydrochloride hydrate] | – | 5.49 | – |
| COC(=O)C1=C(C)NC2=C(C(=O)N(CCCN3CCC(c4ccccc4)(c4ccccc4)CC3)C2)C1c1ccc([N+](=O)[O-])cc1.Cl.O (stereo not shown) [Example 91, 1,4,7,7-Tetrahydro-3-methoxycarbonyl-6-methyl-5-oxo-4-(4-nitrophenyl)-6-(3-(4,4-diphenylpiperidin-1-yl)) propylpyrrolo[3,4-b]pyridine, hydrochloride hydrate] | – | – | pKi Ca [1]: 6.55 |
| COC(=O)C1=C(C)NC(c2ccccc2)=C(C(=O)NCCCN2CCC(c3ccccc3)CC2)C1c1ccc([N+](=O)[O-])cc1.Cl (stereo not shown) [Example 79, 1,4-Dihydro-5-methoxycarbonyl-6-methyl-4-(4-nitro)phenyl-2-phenyl-3-(N-(3-(4-phenylpiperidin-1-yl)propyl)) carboxamidopyridine hydrochloride] | – | 6.17 | – |
| CCC1=C(C(=O)NCCCCN2CCC(c3ccccc3)CC2)C(c2ccc([N+](=O)[O-])cc2)C(C(N)=O)=C(C)N1.Cl.O (stereo not shown) [Example 77, 5-Carboxamido-2-ethyl-1,4-dihydro-6-methyl-4-(4-nitro)phenyl-3-(N-(4-(4-phenylpiperidin-1-yl)butyl))carboxamidopyridine hydrochloride hydrate] | – | 5.94 | – |
| 5-Acetyl-1,4-dihydro-2,6-dimethyl-4-(4-nitrophenyl)-3-[3-(4,4-diphenylpiperidin-1-yl)propoxy]carbonylpyridine hydrochloride hemihydrate [Example 49] | – | – | pKi Ca: 5.37 |
| CNC(=O)C1=C(C)NC(C)=C(C(=O)NCCCN2CCC(c3ccccc3)(c3ccccc3)CC2)C1c1ccc([N+](=O)[O-])cc1 (racemic) [(±)-119, 1,4-Dihydro-2,6-dimethyl-5-(N-Methyl) carboxamido-4-(4-nitrophenyl)-3-{N-[3-(4,4-diphenylpiperidin-1-yl)propyl]}carboxamidopyridine] | – | – | Ki (pKi Ca): 7.41 µM |
